Experimental data published in ChEMBL document CHEMBL1126352, “Novel stereoselective calcium channel ligands of the diphenylalkylamine-type” (Bioorg Med Chem Lett, 1992).

Each molecule was assayed against Voltage-gated L-type calcium channel (Rattus norvegicus, UniProt P22002+Q02485+P27732) (assay: Inhibition of [3H]nitrendipine binding to calcium channel of rat brain membranes.).
Type: cell membranes, Membrane

SMILES | Kd [M l-1]
CC(C)(C)c1ccc(CCCCN2CCC(C(O)(c3ccccc3)c3ccc(Cl)cc3)CC2)cc1 (racemic) | 1.15e-7
CC(C)(C)c1ccc(CCCCN2CCC(C(O)(c3ccccc3)c3ccc(Cl)cc3)CC2)cc1 (stereo in doubt) | 9.36e-8
CC(Cc1ccccc1)NCCC(c1ccccc1)c1ccccc1 (stereo not drawn) [PRENYLAMINE] | 2.09e-7
